Reference: patent US20260365670A1, “EGFR INHIBITORS AND USES THEREOF” (DIZAL (JIANGSU) PHARMACEUTICAL CO., LTD., priority 2022, published 2026)
Like-named read-outs stand apart in the source and are kept apart here.

Key:
EGFR Exon19Del/T790M = target: T1, EGFR Exon19Del/T790M (Homo sapiens, UniProt P00533, DEL746-750/T790M); experiment: Inhibition of EGFR Exon19Del/T790M biochemical enzymatic activity (HTRF); settings: EGFR Del19-T790M, 1 mM ATP, 1 h, room temperature, read-out: IC50 (nM) @Del19-T790M
T1 construct: purchased Carna Bio
T1 sequence (P00533 with tags, fused parts or gaps DEL746-750/T790M limits assumed): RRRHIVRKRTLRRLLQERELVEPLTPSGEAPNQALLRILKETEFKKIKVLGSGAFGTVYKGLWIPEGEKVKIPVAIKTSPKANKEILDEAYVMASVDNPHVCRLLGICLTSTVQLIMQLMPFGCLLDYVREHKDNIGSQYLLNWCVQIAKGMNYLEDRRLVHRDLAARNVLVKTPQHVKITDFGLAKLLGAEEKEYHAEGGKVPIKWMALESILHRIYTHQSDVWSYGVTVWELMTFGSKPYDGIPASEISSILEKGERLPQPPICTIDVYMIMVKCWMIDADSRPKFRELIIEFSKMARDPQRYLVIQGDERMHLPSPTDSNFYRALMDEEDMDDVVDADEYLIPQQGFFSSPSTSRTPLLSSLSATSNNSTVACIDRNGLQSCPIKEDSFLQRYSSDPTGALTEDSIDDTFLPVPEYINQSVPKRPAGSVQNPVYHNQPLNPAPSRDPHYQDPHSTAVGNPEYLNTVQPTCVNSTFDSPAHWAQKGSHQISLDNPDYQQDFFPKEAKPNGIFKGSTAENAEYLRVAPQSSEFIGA
How it was run: (§1)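 Each enzyme was first added to plates holding compound. The reaction was then started with ATP (1 mM) and peptide substrate (1 μM). It was stopped after 1 h at room temperature with EDTA detection reagents and read at 615/665 nm to derive IC50s.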

EGFR L858R/T790M = target: T2, EGFR L858R/T790M (Homo sapiens, UniProt P00533, L858R/T790M); experiment: Inhibition of EGFR L858R/T790M biochemical enzymatic activity (HTRF); settings: EGFR L858R-T790M, 1 mM ATP, 1 h, room temperature, read-out: IC50 (nM) @L858R-T790M
T2 construct: purchased Carna Bio
T2 sequence (P00533 25-1210 T790M/L858R): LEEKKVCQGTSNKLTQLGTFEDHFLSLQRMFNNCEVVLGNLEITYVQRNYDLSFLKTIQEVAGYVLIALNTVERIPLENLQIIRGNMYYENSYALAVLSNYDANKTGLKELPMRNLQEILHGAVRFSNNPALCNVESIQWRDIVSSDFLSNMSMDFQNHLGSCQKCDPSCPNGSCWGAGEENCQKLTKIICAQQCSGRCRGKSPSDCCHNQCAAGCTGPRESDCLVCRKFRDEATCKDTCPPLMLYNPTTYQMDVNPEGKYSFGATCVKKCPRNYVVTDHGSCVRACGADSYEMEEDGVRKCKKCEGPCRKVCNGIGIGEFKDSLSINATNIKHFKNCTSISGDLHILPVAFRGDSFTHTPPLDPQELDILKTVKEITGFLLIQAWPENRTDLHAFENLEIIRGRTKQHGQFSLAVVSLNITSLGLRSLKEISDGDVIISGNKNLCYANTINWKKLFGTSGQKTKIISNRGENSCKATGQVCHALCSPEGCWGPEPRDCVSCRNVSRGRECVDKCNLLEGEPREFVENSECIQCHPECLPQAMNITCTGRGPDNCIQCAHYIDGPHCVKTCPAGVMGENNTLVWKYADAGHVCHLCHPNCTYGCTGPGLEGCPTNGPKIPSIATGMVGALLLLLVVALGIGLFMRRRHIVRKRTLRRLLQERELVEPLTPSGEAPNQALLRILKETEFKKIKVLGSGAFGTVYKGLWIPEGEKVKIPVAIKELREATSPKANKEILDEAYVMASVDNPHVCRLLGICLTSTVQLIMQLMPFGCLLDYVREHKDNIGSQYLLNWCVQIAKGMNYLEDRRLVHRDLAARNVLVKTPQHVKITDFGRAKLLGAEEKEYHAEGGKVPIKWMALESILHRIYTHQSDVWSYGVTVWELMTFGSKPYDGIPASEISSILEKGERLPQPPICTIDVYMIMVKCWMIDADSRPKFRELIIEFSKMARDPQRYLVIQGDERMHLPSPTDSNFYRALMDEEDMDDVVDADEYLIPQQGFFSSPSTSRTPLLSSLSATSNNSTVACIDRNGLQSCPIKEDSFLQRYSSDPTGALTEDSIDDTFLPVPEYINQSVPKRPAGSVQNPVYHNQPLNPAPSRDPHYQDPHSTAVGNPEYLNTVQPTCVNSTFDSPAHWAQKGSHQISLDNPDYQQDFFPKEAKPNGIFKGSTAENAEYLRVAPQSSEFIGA
How it was run: as §1

[1] = target: T3, EGFR[T790M/C797S/d746-750] (Homo sapiens, UniProt P00533, C797S/DEL746-750/T790M); experiment: Inhibition of EGFR[T790M/C797S/d746-750] biochemical enzymatic activity (HTRF); settings: EGFR T790M-C797S-Del19, 1 mM ATP, 1 h, room temperature, read-out: IC50 (nM) @T790M - C797S - Del19
T3 construct: purchased Carna Bio
T3 sequence (P00533 with tags, fused parts or gaps DEL746-750/T790M/C797S limits assumed): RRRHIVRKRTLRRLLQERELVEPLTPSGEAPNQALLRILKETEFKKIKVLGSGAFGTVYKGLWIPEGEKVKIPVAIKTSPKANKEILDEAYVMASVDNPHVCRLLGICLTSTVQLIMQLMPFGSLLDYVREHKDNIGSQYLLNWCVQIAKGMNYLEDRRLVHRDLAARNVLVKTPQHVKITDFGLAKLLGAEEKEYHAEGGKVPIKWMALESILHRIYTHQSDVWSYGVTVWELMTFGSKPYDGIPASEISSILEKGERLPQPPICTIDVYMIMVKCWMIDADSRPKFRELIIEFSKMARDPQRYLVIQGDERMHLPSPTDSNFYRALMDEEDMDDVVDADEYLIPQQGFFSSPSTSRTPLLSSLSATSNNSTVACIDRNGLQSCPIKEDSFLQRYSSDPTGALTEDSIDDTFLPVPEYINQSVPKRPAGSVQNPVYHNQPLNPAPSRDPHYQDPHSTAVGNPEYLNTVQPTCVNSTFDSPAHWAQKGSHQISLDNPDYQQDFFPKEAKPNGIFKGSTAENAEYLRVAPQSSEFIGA
How it was run: as §1

EGFR (C797S L858R) = target: T4, EGFR (C797S L858R) (Homo sapiens, UniProt P00533, C797S/L858R); experiment: Inhibition of EGFR (C797S L858R) biochemical enzymatic activity (HTRF); settings: EGFR L858-C797S, 1 mM ATP, 1 h, room temperature, read-out: IC50 (nM) @L858-C797S
T4 construct: purchased signalchem
T4 sequence (P00533 25-1210 C797S/L858R): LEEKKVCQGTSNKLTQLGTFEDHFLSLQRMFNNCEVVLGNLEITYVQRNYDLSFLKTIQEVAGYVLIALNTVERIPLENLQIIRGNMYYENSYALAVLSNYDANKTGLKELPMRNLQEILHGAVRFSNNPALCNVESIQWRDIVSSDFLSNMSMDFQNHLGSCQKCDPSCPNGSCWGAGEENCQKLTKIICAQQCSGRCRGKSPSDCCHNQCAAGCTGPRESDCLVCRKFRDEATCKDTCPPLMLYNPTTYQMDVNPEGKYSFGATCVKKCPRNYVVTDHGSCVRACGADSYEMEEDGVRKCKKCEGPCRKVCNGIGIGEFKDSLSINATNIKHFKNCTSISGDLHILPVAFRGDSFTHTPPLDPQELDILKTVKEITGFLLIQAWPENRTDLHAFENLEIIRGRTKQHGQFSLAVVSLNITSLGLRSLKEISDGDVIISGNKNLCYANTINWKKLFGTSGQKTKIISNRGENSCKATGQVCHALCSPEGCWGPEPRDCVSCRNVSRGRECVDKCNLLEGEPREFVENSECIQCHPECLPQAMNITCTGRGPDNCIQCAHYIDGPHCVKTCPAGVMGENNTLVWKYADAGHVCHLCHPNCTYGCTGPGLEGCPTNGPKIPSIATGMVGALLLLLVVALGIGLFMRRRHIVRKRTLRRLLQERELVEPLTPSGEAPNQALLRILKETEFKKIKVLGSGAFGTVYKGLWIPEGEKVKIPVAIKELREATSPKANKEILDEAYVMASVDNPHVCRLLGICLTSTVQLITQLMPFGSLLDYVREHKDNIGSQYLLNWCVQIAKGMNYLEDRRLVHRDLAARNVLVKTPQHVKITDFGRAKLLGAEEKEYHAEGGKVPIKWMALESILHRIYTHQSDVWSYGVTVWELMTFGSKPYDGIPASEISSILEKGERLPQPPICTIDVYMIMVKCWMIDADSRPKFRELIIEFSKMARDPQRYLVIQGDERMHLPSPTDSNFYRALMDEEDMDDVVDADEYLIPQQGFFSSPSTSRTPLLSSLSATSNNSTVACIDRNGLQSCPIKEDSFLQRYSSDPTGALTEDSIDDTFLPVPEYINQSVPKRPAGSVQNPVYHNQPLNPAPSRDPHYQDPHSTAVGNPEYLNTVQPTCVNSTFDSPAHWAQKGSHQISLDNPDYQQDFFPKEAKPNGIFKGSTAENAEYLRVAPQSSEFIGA
How it was run: as §1

EGFR wild type = target: T5, EGFR wild type (Homo sapiens, UniProt P00533); experiment: Inhibition of EGFR wild type biochemical enzymatic activity (HTRF); settings: EGFR WT, 1 mM ATP, 1 h, room temperature, read-out: IC50 (nM) @WT
T5 construct: purchased Carna Bio
How it was run: as §1

EGFR[T790M/C797S/L858R] = target: T6, EGFR[T790M/C797S/L858R] (Homo sapiens, UniProt P00533, C797S/L858R/T790M); experiment: Inhibition of EGFR[T790M/C797S/L858R] biochemical enzymatic activity (HTRF); settings: EGFR T790M-C797S-L858R, 1 mM ATP, 1 h, room temperature, read-out: IC50 (nM) @T790M- C797S - L858R
T6 construct: purchased Carna Bio
How it was run: as §1

EGFR L858R = target: T7, EGFR L858R (Homo sapiens, UniProt P00533, L858R); experiment: Inhibition of EGFR L858R biochemical enzymatic activity (HTRF); settings: 1 mM ATP, 1 h, room temperature, read-out: IC50 (nM) @L858R
T7 construct: purchased Carna Bio
How it was run: as §1

EGFR Exon19Del = target: T8, EGFR Exon19Del (Homo sapiens, UniProt P00533, DEL746-750); experiment: Inhibition of EGFR Exon19Del biochemical enzymatic activity (HTRF); settings: EGFR Del19, 1 mM ATP, 1 h, room temperature, read-out: IC50 @Del19
T8 construct: purchased Carna Bio
T8 sequence (P00533 with tags, fused parts or gaps DEL746-750 limits assumed): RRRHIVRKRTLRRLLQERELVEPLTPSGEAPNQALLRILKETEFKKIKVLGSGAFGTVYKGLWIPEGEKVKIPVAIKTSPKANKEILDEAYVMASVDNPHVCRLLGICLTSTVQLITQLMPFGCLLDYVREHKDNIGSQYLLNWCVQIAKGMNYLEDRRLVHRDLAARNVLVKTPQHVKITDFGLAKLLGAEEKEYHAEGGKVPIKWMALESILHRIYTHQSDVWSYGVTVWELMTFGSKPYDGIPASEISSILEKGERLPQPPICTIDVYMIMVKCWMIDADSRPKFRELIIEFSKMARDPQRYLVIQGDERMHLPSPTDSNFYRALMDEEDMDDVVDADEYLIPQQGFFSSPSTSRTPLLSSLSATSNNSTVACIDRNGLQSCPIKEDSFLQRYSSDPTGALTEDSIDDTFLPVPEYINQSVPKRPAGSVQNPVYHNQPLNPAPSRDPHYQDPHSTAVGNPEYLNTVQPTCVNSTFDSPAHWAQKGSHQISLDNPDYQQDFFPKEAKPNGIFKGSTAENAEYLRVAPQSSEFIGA
How it was run: as §1

[2] = test system: Ba/F3 cells expressing EGFR mutations; experiment: Cell proliferation assay, Ba/F3 cells expressing EGFR mutations (CellTiter-Glo, 72 hours); format: cell-based; settings: Mus musculus, BaF3, 72 h, CellTiter-Glo
How it was run: (§2)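 Ba/F3 cells (5000/well) and PC-9 cells (500/well, RPMI1640 with 10% FBS) were plated overnight and then dosed with a compound concentration series. Viable cells were read at day 0 (G0) and after treatment (G3). GI50 came from curve fits of G0-corrected proliferation relative to DMSO.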

EGFR (d746-750 C797S) = target: T9, EGFR (d746-750 C797S) (Homo sapiens, UniProt P00533, C797S/DEL746-750); experiment: Inhibition of EGFR (d746-750 C797S) biochemical enzymatic activity (HTRF); settings: EGFR Del19-C797S, 1 mM ATP, 1 h, room temperature, read-out: IC50 (nM) @Del19-C797S
T9 construct: purchased signalchem
T9 sequence (P00533 with tags, fused parts or gaps DEL746-750/C797S limits assumed): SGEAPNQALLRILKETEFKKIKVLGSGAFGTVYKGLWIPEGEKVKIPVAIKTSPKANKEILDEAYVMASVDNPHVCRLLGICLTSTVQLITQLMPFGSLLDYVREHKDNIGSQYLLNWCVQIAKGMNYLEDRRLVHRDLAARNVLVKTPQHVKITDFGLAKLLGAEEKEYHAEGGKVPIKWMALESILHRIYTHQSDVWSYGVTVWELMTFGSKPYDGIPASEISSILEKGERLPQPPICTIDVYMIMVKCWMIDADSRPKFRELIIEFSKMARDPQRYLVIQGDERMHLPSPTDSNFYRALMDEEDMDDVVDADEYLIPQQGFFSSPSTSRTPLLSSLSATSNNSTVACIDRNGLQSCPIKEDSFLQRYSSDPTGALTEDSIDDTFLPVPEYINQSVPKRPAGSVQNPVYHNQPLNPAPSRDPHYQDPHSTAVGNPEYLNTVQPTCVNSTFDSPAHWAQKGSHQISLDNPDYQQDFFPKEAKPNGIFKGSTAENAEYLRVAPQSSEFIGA
How it was run: as §1

A-431 = experiment: Cell proliferation GI50, A-431 cells (Table 6); format: cell-based; settings: Homo sapiens, A-431, A-431 cells
PC-9 = experiment: Cell proliferation assay, PC-9 cells (CellTiter-Glo, 72 hours); format: cell-based; settings: Homo sapiens, PC-9, 72 h, PC9 cells, CellTiter-Glo, read-out: PC9 GI50
How it was run: as §2

[3] = BaF3 cells, EGFR DEL19-C797S, read-out: DEL19-C797S/BaF3 GI50
[4] = BaF3 cells, EGFR DEL19-T790-C797S, read-out: DEL19-T790-C797S/BaF3 GI50
[5] = BaF3 cells, EGFR L858R, read-out: L858R/BaF3 GI50
[6] = BaF3 cells, EGFR L858R-C797S, read-out: L858R-C797S/BaF3 GI50
[7] = BaF3 cells, EGFR L858R-T790-C797S, read-out: L858R-T790-C797S/BaF3 GI50
[8] = BaF3 cells, EGFR L858R-T790M, read-out: L858R-T790M/BaF3 GI50
[9] = EGFR DEL19-T790M, read-out: DEL19-T790M GI50

| Structure (SMILES) | IC50 (EGFR Exon19Del/T790M) | IC50 (EGFR L858R/T790M) | IC50 [1] | IC50 (EGFR (C797S L858R)) | IC50 (EGFR wild type) | IC50 (EGFR[T790M/C797S/L858R]) | IC50 (EGFR L858R) | IC50 (EGFR Exon19Del) | GI50 [2, 3] | GI50 [2, 4] | GI50 [2, 5] | GI50 [2, 6] | GI50 [2, 7] | GI50 [2, 8] | GI50 [2, 9] | IC50 (EGFR (d746-750 C797S)) | GI50 (A-431) | GI50 (PC-9) |
| --- | --- | --- | --- | --- | --- | --- | --- | --- | --- | --- | --- | --- | --- | --- | --- | --- | --- | --- |
| Cn1ncc2c1OCCN(CC(F)(F)F)CCn1c(nc3ccccc31)NC(=O)c1cc-2c(=O)n(C)c1 [Example A1, 5,26-Dimethyl-10-(2,2,2-trifluoroethyl)-7-oxa-4,5,10,13,20,22,26-heptaazapentacyclo[22.3.1.0^{2,6}.0^{13,21}.0^{14,19}]octacosa-1(28),2(6),3,14,16,18,20,24-octaene-23,27-dione] | 47 nM | 120 nM | 26 nM | 120 nM | 3550 nM | 121 nM | 197 nM | 81 nM | 22 nM | 170 nM | 6.1 nM | 21 nM | 27 nM | 60 nM | 114 nM | 53 nM | 3570 nM | 68 nM |
| CN1CCN(c2ccc3nc4n(c3c2)CCN(CC(F)(F)F)CCOc2c(cnn2C2CC2)-c2cc(cn(C)c2=O)C(=O)N4)CC1 [Example A2, 5-Cyclopropyl-26-methyl-16-(4-methylpiperazin-1-yl)-10-(2,2,2-trifluoroethyl)-7-oxa-4,5,10,13,20,22,26-heptaazapentacyclo[22.3.1.0^{2,6}.0^{13,21}.0^{14,19}]octacosa-1(28),2(6),3,14,16,18,20,24-octaene-23,27-dione] | 4.8 nM | 4.3 nM | 3.7 nM | 4.1 nM | 52 nM | 3.4 nM | 5 nM | 3.5 nM | 5.8 nM | 30 nM | 3.7 nM | 5.2 nM | 6.7 nM | 5.5 nM | 33 nM | 3.7 nM | 1010 nM | 80 nM |
| CN1CCN(c2ccc3nc4n(c3c2)CCN(CC(F)(F)F)CCOc2c(cnn2C)-c2cc(cn(C)c2=O)C(=O)N4)CC1 [Example A3, 5,26-Dimethyl-16-(4-methylpiperazin-1-yl)-10-(2,2,2-trifluoroethyl)-7-oxa-4,5,10,13,20,22,26-heptaazapentacyclo[22.3.1.0^{2,6}.0^{13,21}.0^{14,19}]octacosa-1(28),2(6),3,14,16,18,20,24-octaene-23,27-dione] | 9.3 nM | 12 nM | 8.9 nM | 10 nM | 104 nM | 8.5 nM | 13 nM | 12 nM | 16 nM | 124 nM | 9.7 nM | 11 nM | 22 nM | 30 nM | 128 nM | 6.7 nM | 1290 nM | 236 nM |
| Cn1ncc2c1OCCN(C1COC1)CCn1c(nc3ccccc31)NC(=O)c1cc-2c(=O)n(C)c1 [Example A5, 5,26-Dimethyl-10-(oxetan-3-yl)-7-oxa-4,5,10,13,20,22,26-heptaazapentacyclo[22.3.1.0^{2,6}.0^{13,21}.0^{14,19}]octacosa-1(28),2(6),3,14,16,18,20,24-octaene-23,27-dione] | 704 nM | > 5000 nM | 560 nM | > 5000 nM | > 5000 nM | > 5000 nM | > 5000 nM | 849 nM | 392 nM | 1160 nM | 454 nM | 764 nM | 859 nM | 961 nM | 747 nM | 628 nM | 2870 nM | 482 nM |
| CCN1CCOc2c(cnn2C)-c2cc(cn(C)c2=O)C(=O)Nc2nc3ccccc3n2C(C)C1 (stereo not drawn) [Example A6, 10-Ethyl-5,12,26-trimethyl-7-oxa-4,5,10,13,20,22,26-heptaazapentacyclo[22.3.1.0^{2,6}.0^{13,21}.0^{14,19}]octacosa-1(28),2(6),3,14,16,18,20,24-octaene-23,27-dione] | 1530 nM | > 5000 nM | 1230 nM | > 5000 nM | > 5000 nM | > 5000 nM | > 5000 nM | 1670 nM | 204 nM | 1050 nM | 1310 nM | 919 nM | 1540 nM | 795 nM | 968 nM | 1870 nM | 1780 nM | 403 nM |
| Cn1ncc2c1OCCN1CCCCC(C1)n1c(nc3ccccc31)NC(=O)c1cc-2c(=O)n(C)c1 (stereo not drawn) [Example A8, 15,21-Dimethyl-23-oxa-2,9,11,15,20,21,26-heptaazahexacyclo[24.4.1.1^{13,17}.0^{2,10}.0^{3,8}.0^{18,22}]dotriaconta-3,5,7,9,13,17(32),18(22),19-octaene-12,16-dione] | 290 nM | > 5000 nM | 226 nM | 3550 nM | > 5000 nM | > 5000 nM | > 5000 nM | 368 nM | 93 nM | 401 nM | 180 nM | 332 nM | 214 nM | 977 nM | 256 nM | 256 nM | 3880 nM | 180 nM |
| Cn1ncc2c1OCCN1CC3(CCCC1C3)n1c(nc3ccc(N4CCOCC4)cc31)NC(=O)c1cc-2c(=O)n(C)c1 (stereo not drawn) [Example A9, 15,21-Dimethyl-5-(morpholin-4-yl)-23-oxa-2,9,11,15,20,21,26-heptaazaheptacyclo[24.4.1.1^{1,27}.1^{13,17}.0^{2,10}.0^{3,8}.0^{18,22}]tritriaconta-3,5,7,9,13,17(33),18(22),19-octaene-12,16-dione] | 198 nM | > 5000 nM | 316 nM | > 5000 nM | > 5000 nM | > 5000 nM | > 5000 nM | 264 nM | 55 nM | 405 nM | 608 nM | 515 nM | 607 nM | 264 nM | 364 nM | 536 nM | 3020 nM | 211 nM |
